Experimental data published in article PMC10144566, “Pharmacokinetic Profile Evaluation of Novel Combretastatin Derivative, LASSBio-1920, as a Promising Colorectal Anticancer Agent” (Pharmaceutics, 2023).
Like-named read-outs stand apart in the source and are kept apart here.

What was measured:
[1] = system: HPBMC, human peripheral blood mononuclear cells; assay: MTT cytotoxicity assay, HPBMC; type: cell-based; conditions: PBMC, 72 h incubation, read-out: IC50 (95% CI) HPBMC
Experimental: Heparinized blood was collected from healthy, non-smoking donors who had not taken any drugs during the 15 days prior to sampling. Human peripheral blood mononuclear cells (HPBMC) were isolated by a standard density-gradient centrifugation method over Ficoll-Hypaque® media (Merck-Sigma-Aldrich, St. Louis, MO, USA). HPBMC were washed and resuspended in RPMI-1640 medium supplemented with 20% fetal bovine serum, 2 mM glutamine, 100 U/mL penicillin, and 100 µg/mL streptomycin at 37 °C with 5% CO2. Phytohemagglutinin (3%) was added at the beginning of the culture.
The cytotoxicity of the compounds was determined using the MTT assay. Cells were seeded in 96-well plates as follows: 0.7 × 10^5 cells/well for adherent cancer cells, 0.3 × 10^5 cells/well for suspended cancer cells, and 0.2 × 10^5 cells/well for HPBMCs. The treatments were dissolved in DMSO and added to each well using an automated liquid handler for high-throughput screening (Biomek 3000—Beckman Coulter, Inc., Fullerton, CA, USA) and incubated for either 24, 48, and 72 h. The control group was treated with the vehicle. […] After incubation, the supernatant was decanted and replaced with fresh medium containing MTT (0.5 mg/mL). Three hours later, the MTT’s formazan product was dissolved in 150 µL of pure DMSO, and absorbance was measured at 595 nm (DTX 880 Multimode Detector, Beckman Coulter, Inc., Pasadena, CA, USA).
Data were presented as mean ± standard error of the mean (SEM) from three independent experiments performed in triplicate, calculated using Prism 8.0 (GraphPad/Intuitive Software for Science, San Diego, CA, USA). The IC50 of the compounds was obtained using a non-linear regression of the cytotoxicity curves.

[2] = system: MDA-MB435; set-up: method as in PMID 16722619, PMID 21488686; conditions: lowest IC50 value among cancer cell lines; cited from earlier work
[3] = system: PC-3, prostate adenocarcinoma; assay: MTT cytotoxicity assay, PC-3; conditions: Homo sapiens, 72 h, read-out: IC50 (95% CI) PC-3
Experimental: (§1) The cytotoxicity of the compounds was determined using the MTT assay [13]. Cells were seeded in 96-well plates as follows: 0.7 × 10^5 cells/well for adherent cancer cells, 0.3 × 10^5 cells/well for suspended cancer cells, and 0.2 × 10^5 cells/well for HPBMCs. […] The control group was treated with the vehicle. […] After incubation, the supernatant was decanted and replaced with fresh medium containing MTT (0.5 mg/mL).

[4] = system: PC-9, lung adenocarcinoma (overexpressed EGFR with L858R mutation); assay: MTT cytotoxicity assay, PC-9; conditions: for SI HPBMC/PC-9: IC50 for HPBMC/IC50 for the tumor cell line
Experimental: as §1

[5] = system: N-87, gastric carcinoma; assay: MTT cytotoxicity assay, N-87; conditions: Homo sapiens, 72 h, read-out: IC50 (95% CI) N-87
Experimental: as §1

[6] = system: SF-295, glioblastoma; assay: MTT cytotoxicity assay, SF-295; conditions: Homo sapiens, SF-295, 72 h, read-out: IC50 (95% CI) SF-295
Experimental: as §1

[7] = system: H-1975, non-small cell lung adenocarcinoma; assay: MTT cytotoxicity assay, H-1975; conditions: Homo sapiens, NCI-H1975, 72 h, read-out: IC50 (95% CI) H-1975
Experimental: as §1

[8] = system: HCT-116 human colorectal cancer cells (colon carcinoma); assay: MTT cytotoxicity assay, HCT-116; conditions: for IC50: Homo sapiens; for SI HPBMC/HCT-116: IC50 for HPBMC/IC50 for the tumor cell line, 72 h
Experimental: as §1

[9] = PAMPA-GIT permeability; type: in vitro ADME; conditions: for Fa%: PAMPA-GIT predicted absorbed fraction, 0–30% low, 30–69% medium, 70–100% high absorption; for Papp at 5 h, 0.5 mM: PAMPA-GIT, room temperature, read-out: Pe (Experimental)
From the text: (§2) For this, two 96-well plates were placed one above the other, and between them, an artificial hydrophobic polyvinylidene fluoride (PVDF) membrane, which was impregnated with a lipid solution. The top plate works as the donor compartment and the bottom one as the receiver compartment.
Parallel artificial membrane permeation assay for gastrointestinal tract (GIT-PAMPA): 1% (w/v) phosphatidylcholine was mixed with dodecane as a lipid solution to impregnate the PVDF membrane between the donor and receiver plates to stimulate intestinal permeability. […] A total of 180 µL of the mixture of PBS and DMSO (v/v 95:5) was added to the recipient plate, and 180 µL of the test solution was added to the donor plate. Immediately and carefully, the donor plate was placed above the receiver plate and incubated for 5 h at room temperature. The solution captured on the receptor plate was removed and subsequently analyzed by a UV detector (SpectraMax 5®—Molecular Devices, Sao Jose, CA, USA). The experiments were performed in quadruplicate.

[10] = PAMPA-BBB permeability; type: in vitro ADME; conditions: for Papp: PAMPA; for Pe1 (Experimental): replicate 1; for Pe2 (Experimental): replicate 2
Experimental: as §2
Parallel artificial membrane permeation assay for the blood–brain barrier (PAMPA-BBB): It was performed according to the previously reported [26] method established by Lu and coworkers [27].

[11] = set-up: method as in Literature (reference not given); conditions: absorbed fraction of PAMPA-GIT controls; ref Literature (reference not given); cited from earlier work
[12] = system: MCF-7; set-up: method as in PMID 23459143; conditions: 24 h incubation; cited from earlier work
[13] = system: MDA -MB231; set-up: method as in PMID 23459143; conditions: 24 h incubation; cited from earlier work
[14] = Homo sapiens, 72 h, read-out: IC50 (95% CI) PC-9
[15] = HCT-116, 72 h, read-out: IC50 (95% CI) HCT-116

SMILES: COc1cc(C(=O)NN=Cc2ccccc2)cc(OC)c1OC [LASSBio-1586]
- IC50 [1]: 1340 nM
- IC50 [2]: 64 nM
- IC50 [3]: 920 nM
- IC50 [4, 14]: 750 nM
- SI HPBMC/PC-9 ([4]; 72 h): 1.8
- IC50 [5]: 820 nM
- IC50 [6]: 260 nM
- IC50 [7]: 2830 nM
- IC50 [8, 15]: 320 nM
- SI HPBMC/HCT-116 [8]: 4.2

SMILES: CCn1cc(C(=O)O)c(=O)c2cc(F)c(N3CCNCC3)cc21 [Norfloxacin]
- Fa% [9]: 51.39%

SMILES: CCOc1cc2ncc(C#N)c(Nc3ccc(F)c(Cl)c3)c2cc1NC(=O)/C=C/CN(C)C [PELITINIB, Pelitinib]
- IC50 ([4]; read-out: IC50 (95% CI) PC-9, 72 h incubation, MTT): 530 nM
- IC50 [5]: 330 nM
- IC50 [7]: 4400 nM

SMILES: CCn1cc(C(=O)O)c(=O)c2cc(F)c(N3CCNCC3)nc21 [Enoxacin]
- Papp ([10]; PAMPA-BBB classification: absorbed by the Central Nervous System, read-out: CNS Permeability): < 1.13 ×10⁻⁶ cm/s
- Papp ([10]; PAMPA-BBB, mean, read-out: Pe (Experimental Mean)): 0.3 ×10⁻⁶ cm/s
- Pe1 (Experimental) ([10]; PAMPA-BBB): 0.48 10–6 cm/s
- Pe2 (Experimental) ([10]; PAMPA-BBB): 0.06 10–6 cm/s

SMILES: CO/N=C(\C(=O)N[C@@H]1C(=O)N2C(C(=O)O)=C(CSc3nc(=O)c(=O)[nH]n3C)CS[C@H]12)c1csc(N)n1 [Ceftriaxone]
- Fa (Literature) [11]: 1

SMILES: COc1ccc(/C=C\c2cc(OC)c(OC)c(OC)c2)cc1O [CA4, Combretastatin A-4]
- IC50 [1]: 4.7 nM
- IC50 [12]: 10 nM
- IC50 [13]: 110 nM
- IC50 [3]: 8 nM
- IC50 ([4]; Homo sapiens, 24 h, read-out: IC50 (95% CI) PC-9 24 h): 2600 nM
- IC50 ([4]; Homo sapiens, 48 h, read-out: IC50 (95% CI) PC-9 48 h): 1380 nM
- IC50 [4, 14]: 110 nM
- IC50 ([4]; Homo sapiens, 72 h, read-out: IC50 (95% CI) PC-9 72 h): 110 nM
- SI HPBMC/PC-9 ([4]; 72 h): 0.043
- IC50 [5]: 3340 nM
- IC50 [6]: 8 nM
- IC50 [7]: 35 nM
- IC50 ([8]; HCT-116, 48 h, read-out: IC50 (95% CI) HCT-116 48 h): 200 nM
- IC50 [8, 15]: 2.1 nM
- IC50 ([8]; HCT-116, 72 h, read-out: IC50 (95% CI) HCT-116 72 h): 2.1 nM
- SI HPBMC/HCT-116 [8]: 2.24

SMILES: O=C(O)Cc1ccccc1Nc1c(Cl)cccc1Cl [Diclofenac]
- Fa% [9]: 100.0%
- Fa (Literature) [11]: 100

SMILES: O=c1ccc2ccccc2o1 [Coumarin]
- Papp at 5 h, 0.5 mM [9]: 26 ×10⁻⁶ cm/s

SMILES: CNC(=C[N+](=O)[O-])NCCSCc1ccc(CN(C)C)o1 [Ranitidine]
- Fa% [9]: 16.50%
- Papp at 5 h, 0.5 mM [9]: 0.2 ×10⁻⁶ cm/s

SMILES: Cn1c(=O)c2c(ncn2C)n(C)c1=O [Caffeine]
- Pe1 (Experimental) ([10]; PAMPA-BBB): 0.36 10–6 cm/s
- Pe2 (Experimental) ([10]; PAMPA-BBB): −0.10 10–6 cm/s

SMILES: CCN(CC)CCNC(=O)c1c(C)[nH]c(/C=C2\C(=O)Nc3ccc(F)cc32)c1C [SUNITINIB, Sunitinib]
- IC50 [5]: 10900 nM
- IC50 [7]: 4480 nM
